Laboratory results published in patent US6737383B1, “Herbicidal oxadiazolidines” (priority 1999, dated 2004).

Experiments:
smallflower flatsedge = assay: Test B flood test smallflower flatsedge; assay type: in vivo, Cyperus difformis
Method in brief: (§1)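 Each value is a visual injury score relative to controls, with 10 meaning complete control and 0 no effect. Evaluation took place twelve to sixteen days after the 2-leaf-stage plants were treated and kept in the greenhouse.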

wheat = assay: Test B pre/postemergence wheat; assay type: in vivo, Triticum aestivum
Method in brief: (§2)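 Response is a visual 0-to-10 score relative to untreated plants, where 0 means no effect and 10 means complete control, taken twelve to sixteen days after application. Treatments went onto soil at planting and onto foliage of 1- to 4-leaf plants, using a surfactant-containing non-phytotoxic solvent.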

purple nutsedge = assay: Test B pre/postemergence purple nutsedge; assay type: in vivo, Cyperus rotundus
Method in brief: as §2

crabgrass = assay: Test B pre/postemergence crabgrass; assay type: in vivo, Digitaria sanguinalis
Method in brief: as §2

pigweed = assay: Test B pre/postemergence pigweed; assay type: in vivo, Amaranthus retroflexus
Method in brief: as §2

rice = assay: Test B flood test rice; assay type: in vivo, Oryza sativa
Method in brief: as §1

sugar beet = assay: Test B pre/postemergence sugar beet; assay type: in vivo, Beta vulgaris
Method in brief: as §2

bamyardgrass = assay: Test B flood test barnyardgrass; assay type: in vivo, Echinochloa crus-galli
Method in brief: as §1

wild oat = assay: Test B pre/postemergence wild oat; assay type: in vivo, Avena fatua
Method in brief: as §2

morningglory = assay: Test B pre/postemergence morningglory; assay type: in vivo, Ipomoea hederacea
Method in brief: as §2

duck salad = assay: Test B flood test duck salad; assay type: in vivo, Heteranthera limosa
Method in brief: as §1

giant foxtail = assay: Test B pre/postemergence giant foxtail; assay type: in vivo, Setaria faberii
Method in brief: as §2

velvetleaf = assay: Test B pre/postemergence velvetleaf; assay type: in vivo, Abutilon theophrasti
Method in brief: as §2

rape = assay: Test B pre/postemergence rape; assay type: in vivo, Brassica napus
Method in brief: as §2

soybean = assay: Test B pre/postemergence soybean; assay type: in vivo, Glycine max
Method in brief: as §2

surinam grass = assay: Test B pre/postemergence surinam grass; assay type: in vivo, Brachiaria decumbens
Method in brief: as §2

cocklebur = assay: Test B pre/postemergence cocklebur; assay type: in vivo, Xanthium strumarium
Method in brief: as §2

corn = assay: Test B pre/postemergence corn; assay type: in vivo, Zea mays
Method in brief: as §2

blackgrass = assay: Test B pre/postemergence blackgrass; assay type: in vivo, Alopecurus myosuroides
Method in brief: as §2

bedstraw = assay: Test B pre/postemergence bedstraw; assay type: in vivo, Galium aparine
Method in brief: as §2

[1] = Rate 62 g/ha, flood test species, Pre-emergence, visual evaluation after twelve to sixteen days
[2] = Rate 125 g/ha, under heading Pre-emergence, flood test species, visual evaluation after twelve to sixteen days
[3] = Rate 250 g/ha, Pre-emergence (flood test species), scale 0 to 10, 0 is no effect, 10 is complete control
[4] = Rate 500 g/ha, Pre-emergence section of Table B, 0 to 10 scale (0 no effect, 10 complete control)
[5] = Postemergence, Rate 125 g/ha, scale 0 to 10, 0 is no effect, 10 is complete control
[6] = Postemergence, Rate 500 g/ha, scale 0 to 10, 0 is no effect, 10 is complete control
[7] = Preemergence, Rate 62 g/ha, scale of 0 to 10 where 0 is no effect and 10 is complete control
[8] = Preemergence, Rate 125 g/ha, scale 0 to 10, 0 is no effect, 10 is complete control
[9] = Preemergence, Rate 500 g/ha, scale of 0 to 10 where 0 is no effect and 10 is complete control
[10] = Rate 62 g/ha, Postemergence, scale 0 to 10, 0 no effect, 10 complete control
[11] = Postemergence, Rate 250 g/ha, scale 0 to 10
[12] = Preemergence, Rate 250 g/ha, scale 0 to 10, 0 is no effect, 10 is complete control

## CC(C)N(C(=O)n1oc(=O)n(CC2=CCCCC2)c1=O)c1ccccc1 [Compound 496]
Smallflower flatsedge; [1]
  Plant response rating, S. Flatsedge (0 to 10 scale, 0 is no effect, 10 is complete control): 0
Smallflower flatsedge; [2]
  S. Flatsedge plant response rating (0 to 10 scale, 0 is no effect, 10 is complete control): 0
Smallflower flatsedge; [3]
  S. Flatsedge plant response rating: 0
Smallflower flatsedge; [4]
  S. Flatsedge plant response rating: 0
wheat; [5]
  Wheat plant response rating: 0
wheat; [6]
  Plant response rating, Wheat: 3
wheat; [7]
  Plant response rating, Wheat: 0
wheat; [8]
  Wheat plant response rating: 0
wheat; [9]
  Wheat plant response rating: 0
wheat; [10]
  Wheat plant response rating: 0
Purple nutsedge; [5]
  Nutsedge plant response rating: 0
Purple nutsedge; [6]
  Plant response rating, Nutsedge: 0
Purple nutsedge; [7]
  Plant response rating, Nutsedge: 0
Purple nutsedge; [8]
  Nutsedge plant response rating: 0
Purple nutsedge; [9]
  Nutsedge plant response rating: 0
Purple nutsedge; [10]
  Nutsedge plant response rating: 0
crabgrass; [5]
  Crabgrass plant response rating: 0
crabgrass; [11]
  Crabgrass plant response rating: 0
crabgrass; [6]
  Plant response rating, Crabgrass: 2
crabgrass; [7]
  Plant response rating, Crabgrass: 0
crabgrass; [8]
  Crabgrass plant response rating: 4
crabgrass; [9]
  Crabgrass plant response rating: 9
crabgrass; [10]
  Crabgrass plant response rating: 0
pigweed; [5]
  Redroot pigweed plant response rating: 0
pigweed; [6]
  Plant response rating, Redroot pigweed: 3
pigweed; [7]
  Plant response rating, Redroot pigweed: 0
pigweed; [8]
  Redroot pigweed plant response rating: 0
pigweed; [9]
  Redroot pigweed plant response rating: 8
pigweed; [10]
  Redroot pigweed plant response rating: 0
rice; [1]
  Plant response rating, Rice (0 to 10 scale, 0 is no effect, 10 is complete control): 0
rice; [2]
  Rice plant response rating (0 to 10 scale, 0 is no effect, 10 is complete control): 0
rice; [3]
  Rice plant response rating: 0
rice; [4]
  Rice plant response rating: 0
Sugar beet; [5]
  Sugarbeets plant response rating: 0
Sugar beet; [6]
  Plant response rating, Sugarbeets: 0
Sugar beet; [7]
  Plant response rating, Sugarbeets: 0
Sugar beet; [8]
  Sugarbeets plant response rating: 0
Sugar beet; [9]
  Sugarbeets plant response rating: 0
Sugar beet; [10]
  Sugarbeets plant response rating: 0
bamyardgrass; [1]
  Plant response rating, Barnyardgrass (0 to 10 scale, 0 is no effect, 10 is complete control): 0
bamyardgrass; [2]
  Barnyardgrass plant response rating (0 to 10 scale, 0 is no effect, 10 is complete control): 0
bamyardgrass; [3]
  Barnyardgrass plant response rating: 0
bamyardgrass; [4]
  Barnyardgrass plant response rating: 0
Wild oat; [5]
  Wild oats plant response rating: 0
Wild oat; [6]
  Plant response rating, Wild oats: 2
Wild oat; [7]
  Plant response rating, Wild oats: 0
Wild oat; [8]
  Wild oats plant response rating: 0
Wild oat; [9]
  Wild oats plant response rating: 0
Wild oat; [10]
  Wild oats plant response rating: 0
morningglory; [5]
  Morningglory plant response rating: 8
morningglory; [6]
  Plant response rating, Morningglory: 8
morningglory; [7]
  Plant response rating, Morningglory: 0
morningglory; [8]
  Morningglory plant response rating: 0
morningglory; [9]
  Morningglory plant response rating: 0
morningglory; [10]
  Morningglory plant response rating: 8
Duck salad; [1]
  Plant response rating, Ducksalad (0 to 10 scale, 0 is no effect, 10 is complete control): 0
Duck salad; [2]
  Ducksalad plant response rating (0 to 10 scale, 0 is no effect, 10 is complete control): 0
Duck salad; [3]
  Ducksalad plant response rating: 0
Duck salad; [4]
  Ducksalad plant response rating: 0
Giant foxtail; [5]
  Giant foxtail plant response rating: 0
Giant foxtail; [6]
  Plant response rating, Giant foxtail: 0
Giant foxtail; [7]
  Plant response rating, Giant foxtail: 2
Giant foxtail; [8]
  Giant foxtail plant response rating: 8
Giant foxtail; [9]
  Giant foxtail plant response rating: 9
Giant foxtail; [10]
  Giant foxtail plant response rating: 0
velvetleaf; [5]
  Velvetleaf plant response rating: 0
velvetleaf; [6]
  Plant response rating, Velvetleaf: 0
velvetleaf; [7]
  Plant response rating, Velvetleaf: 0
velvetleaf; [8]
  Velvetleaf plant response rating: 0
velvetleaf; [9]
  Velvetleaf plant response rating: 0
velvetleaf; [10]
  Velvetleaf plant response rating: 0
rape; [5]
  Rape plant response rating: 0
rape; [6]
  Plant response rating, Rape: 0
rape; [7]
  Plant response rating, Rape: 0
rape; [8]
  Rape plant response rating: 0
rape; [9]
  Rape plant response rating: 0
rape; [10]
  Rape plant response rating: 0
soybean; [5]
  Soybean plant response rating: 3
soybean; [6]
  Plant response rating, Soybean: 3
soybean; [7]
  Plant response rating, Soybean: 0
soybean; [8]
  Soybean plant response rating: 0
soybean; [9]
  Soybean plant response rating: 0
soybean; [10]
  Soybean plant response rating: 2
Surinam grass; [5]
  B. signalgrass plant response rating: 0
Surinam grass; Postemergence, Rate 250 g/ha, scale 0 to 10, 0 no effect, 10 complete control
  B. signalgrass plant response rating: 0
Surinam grass; [6]
  Plant response rating, B. signalgrass: 4
Surinam grass; [7]
  Plant response rating, B. signalgrass: 0
Surinam grass; [8]
  B. signalgrass plant response rating: 0
Surinam grass; [12]
  B. signalgrass plant response rating: 1
Surinam grass; Preemergence, Rate 500 g/ha, scale 0 to 10, 0 is no effect, 10 is complete control
  B. signalgrass plant response rating: 8
Surinam grass; [10]
  B. signalgrass plant response rating: 0
cocklebur; [5]
  Cocklebur plant response rating: 0
cocklebur; [11]
  Cocklebur plant response rating: 0
cocklebur; [6]
  Plant response rating, Cocklebur: 1
cocklebur; [7]
  Plant response rating, Cocklebur: 0
cocklebur; [8]
  Cocklebur plant response rating: 0
cocklebur; [12]
  Cocklebur plant response rating: 0
cocklebur; [9]
  Cocklebur plant response rating: 0
cocklebur; [10]
  Cocklebur plant response rating: 0
corn; [5]
  Corn plant response rating: 0
corn; [11]
  Corn plant response rating: 0
corn; [6]
  Plant response rating, Corn: 0
corn; [7]
  Plant response rating, Corn: 0
corn; [8]
  Corn plant response rating: 0
corn; [9]
  Corn plant response rating: 0
corn; [10]
  Corn plant response rating: 0
blackgrass; [5]
  Blackgrass plant response rating: 3
blackgrass; [11]
  Blackgrass plant response rating: 3
blackgrass; [6]
  Plant response rating, Blackgrass: 5
blackgrass; [7]
  Plant response rating, Blackgrass: 0
blackgrass; [8]
  Blackgrass plant response rating: 0
blackgrass; [12]
  Blackgrass plant response rating: 2
blackgrass; [9]
  Blackgrass plant response rating: 2
blackgrass; [10]
  Blackgrass plant response rating: 2
bedstraw; [11]
  Bedstraw plant response rating: 0
bedstraw; [7]
  Plant response rating, Bedstraw: 0
bedstraw; [8]
  Bedstraw plant response rating: 0
